The values below come from US20200121645A1, “COMPOSITION FOR PREVENTING OR TREATING EGFR-MUTANT NON-SMALL CELL LUNG CANCER” (THE ASAN FOUNDATION, priority 2018, published 2020).

Assay [1] relates to PC9 cells. The assay can be described thus: TCA metabolite pools by LC-MS/MS. It is filed as cell-based. Conditions: 2DG 10 mM or BPTES 10 μM. The method, then: Cells were grown to ˜60% confluence in growth media (RPMI1640, 10% FBS) on 10-cm dishes. After 24 hours, cells were harvested using 1.4 mL of cold methanol/H2O (80/20, v/v) after sequential PBS and H2O washes, and lysed; 100 μL of 5 μM internal standard was added. Metabolites were liquid-liquid extracted from the aqueous phase after adding chloroform. The aqueous phase was dried via vacuum centrifugation, and the sample was reconstituted with 50 μL of 50% methanol prior to LC/MS-MS analysis. The LC/MS-MS system was equipped with an Agilent 1290 HPLC (Agilent Technologies, Santa Clara, Calif., USA), Qtrap 5500 (ABSciex, Concord, Ontario, Canada), and reverse phase column (Synergi fusion RP 50×2 mm). A 3 μL volume was injected into the LC/MS-MS system and ionized with a turbo spray ionization source. Multiple reaction monitoring was used in negative ion mode, and the extracted ion chromatogram (EIC), corresponding to the specific transition for each metabolite was used for quantitation. The area under the curve of each EIC was normalized to that of the internal standard EIC. The peak area ratio of each metabolite to the internal standard was normalized using protein amount in a sample, and then was used for relative comparison.

For assay [2], the system named is PC-9/GR and PC-9/ER cells. Kind of assay: Western blot of JNK, EGFR signaling and apoptosis markers in EGFR-TKI-resistant cells. It is filed as cell-based. The following applies: 24 h. The method, then:
(§1) Cells were lysed in RIPA lysis buffer containing protease inhibitor cocktail (Thermo Scientific, Waltham, Mass., USA); lysate concentrations were assayed using a BCA assay (Thermo Scientific). Equal amounts of lysates were mixed with Laemmli loading dye and boiled for 10 minutes. Lysates were subjected to SDS-PAGE, and separated proteins were transferred to PVDF membranes (EMD Millipore, Billerica, Mass., USA). Membranes were blocked in Tris-buffered saline (TBS) containing 5% nonfat dry milk and 0.1% Tween 20 (TBS-T) prior to overnight incubation with primary antibody at 4° C. After washing with TBS-T, blots were exposed to appropriate horseradish peroxidase-conjugated secondary antibodies for 1 hour. Proteins-antibody complexes were visualized on Kodak X-ray film using an enhanced chemiluminescence (ECL) detection system (Thermo Scientific, Waltham, Mass., USA).
On the technique in general: Immunoblotting shows a protein as a band on a membrane.

The subject of a further assay is EGFR. The assay can be described thus: EGFR transcriptional level. It is filed as cell-based. The method, then: Total RNA was extracted using TRIzol (Invitrogen, Carlsbad, Calif., USA). cDNA was synthesized from 2 μg of total RNA, using oligo-dT and MMLV HP reverse transcriptase (Epicentre, Madison, Wis., USA) according to the manufacturer's instruction. qRT-PCR was performed on an AriaMax Real-Time PCR instrument (Agilent Technologies, Santa Clara, Calif., USA) using the SYBR detection protocol. cDNA was calculated by the comparative Ct method, with 18S ribosomal RNA as a control. PCR reactions were performed in triplicates.

In assay [3] the test system is IGF1R and MET in EGFR-mutant NSCLCs. The assay can be described thus: Western blot of other receptor tyrosine kinases. Format: cell-based. Conditions: 2DG 10 mM, 24 h. The method, then: as §1
Assay [4] has as its system PC-9/GR and PC-9/ER cells. The assay can be described thus: Apoptotic cell death by Annexin V/PI staining and flow cytometry in EGFR-TKI-resistant cells. Conditions: PC-9/GR and PC-9/ER cells (T790M), 24 h. It is filed as cell-based. The method, then:
(§2) Apoptotic cell death was detected using an Annexin-V/FITC assay. Cells were harvested by trypsinization, washed with PBS, and resuspended in Annexin-V binding buffer (10 mM HEPES, pH 7.4, 140 mM NaCl, 2.5 mM CaCl2) containing Annexin-V FITC and propidium iodide. Stained cells were quantified and analyzed on a flow cytometer (BeckmanCoulter, Brea, Calif., USA).
In general terms: A flow cytometer gives signals particle by particle.

Assay [5] deals with pentose phosphate pathway. The assay can be described thus: NADP+/NADPH ratios. It is filed as cell-based. Conditions: data not shown.
Assay [6] concerns EGFR-mutant NSCLCs. Kind of assay: Autophagy: LC3-II immunoblot and GFP-LC3 puncta. Format: cell-based. Conditions: 2DG 10 mM or anisomycin 5 μM, 24 h. The method, then:
as §1

For assay [7], the system named is EGFR-mutant NSCLCs. Kind of assay: ROS quantification (DCFDA and MitoSox Red). It is filed as cell-based. The following applies: 2DG 10 mM or rotenone 5 μM, 24 h. The method, then:
To determine cytoplasmic ROS, cells were incubated with 2′,7′-dichlorodihydrofluorescein diacetate (DCFDA, 5 μM; Invitrogen, Carlsbad, Calif., USA) for 30 minutes. Excess DCFDA was removed by washing cells twice with PBS at room temperature; labeled cells were trypsinized, rinsed, and resuspended in PBS. The oxidation of DCFDA to the highly fluorescent 2′,7′-dichloro-fluorescein (DCF), which is proportionate to ROS generation, was analyzed by flow cytometry. To analyze mitochondrial ROS, the cells were then incubated with 5 μM MitoSOX™ reagent (Thermo Scientific, Waltham, Mass., USA) for 10 minutes at 37° C. and trypsinized, washed with PBS, and then resuspended in 200 μL of PBS. Stained cells were then quantified and analyzed on a flow cytometer (BeckmanCoulter, Brea, Calif., USA). Excitation wavelength was 510 nm, and emission wavelength was 580 nm.

In assay [8] the test system is EGFR-mutant NSCLCs (PC9 and H1975). The assay can be described thus: Apoptotic cell death by Annexin V/PI staining and flow cytometry. It is filed as cell-based. The following applies: for apoptotic cell death: EGFR-mutant NSCLCs, 24 h treatment; for rescue from glucose deprivation-induced apoptosis: glucose-free medium, 24 h, SP600125 15 μM. The method, then: as §2

Assay [9] deals with EGFR-WT NSCLCs (A549 and H1299). The description is as above. The following applies: 24 h treatment. It is filed as cell-based. The method, then:
as §2

Assay [10] concerns PC9 and H1975 tumor cell xenografts. Kind of assay: Xenograft studies, tumor volume. The following applies: 2DG 500 mg/kg, intraperitoneal, 5 days a week for 2 weeks; compared with EGFR-WT (A549) xenografts. Format: in vivo, SCID mice. The method, then: Female severe combined immunodeficiency (SCID) mice were purchased from Charles River Laboratories. All experimental procedures were approved by the Institutional Animal Care and Use Committee of Asan Institute for Life Sciences (protocol 2015-14-241). For each animal, 2×10^6 cells mixed with Matrigel (BD Biosciences) were injected into the flank. Five mice per group were treated when the tumor volumes reached 50 to 100 mm^3 with anisomycin (5 mg/kg, intratumoral, 5 days a week) or 2-deoxy-D-glucose (2DG) 500 mg/kg, intraperitoneal, 5 days a week) for 2 weeks. The length (L) and width (W) of each tumor were measured using calipers, and the tumor volume (TV) was calculated as TV=(L×W^2)/2. To evaluate EGFR-related signaling in xenograft tumors, tumors were harvested after 3 days of drug treatment, lysed, and analyzed with Western blotting.

The subject of assay [11] is EGFR in EGFR-mutant NSCLCs. The assay can be described thus: Western blot of EGFR levels, EGFR signaling and PARP/caspase-3 cleavage. It is filed as cell-based. Conditions: for EGFR levels / EGFR signaling (AKT and ERK phosphorylation) / PARP and caspase-3 cleavage (apoptosis markers): EGFR-mutant NSCLCs, immunoblot. The method, then: as §1
For assay [12], the system named is JNK in EGFR-mutant NSCLCs. Kind of assay: Western blot for JNK and P-JNK. Format: cell-based. Conditions: for JNK activation (P-JNK): EGFR-mutant NSCLCs, immunoblot. The method, then:
as §1

In assay [13] the test system is PC9 cells. Kind of assay: Quantitation of intracellular ATP. The following applies: MPYR or AKG 7 mM, 24 h. It is filed as cell-based. The method, then: Intracellular ATP concentrations were measured using an ATP Colorimetric/Fluorometric Assay Kit (Biovision Incorporated, Milpitas, Calif., USA) according to the manufacturer's instructions. Briefly, cells were lysed in […] of ATP assay buffer; 50 μL of supernatants were collected and added to a 96-well plate. To each well, 50 μL of ATP assay buffer containing ATP probe, ATP converter, and developer were added. Absorbance was measured at 570 nm.

The structures appear in SMILES notation.

Turning to `O=CC[C@@H](O)[C@H](O)[C@H](O)CO` [2DG, 2-deoxy-D-glucose], the “levels of TCA cycle intermediates” value in the assay on PC9 cells [1] is “significantly decreased”. Also, the JNK activation entry in assay [2] (2DG 10 mM) is “markedly activated JNK”. In addition, in [2], the “EGFR level, AKT and ERK phosphorylation, PARP and caspase-3 cleavage” value is “EGFR level reduction, AKT and ERK phosphorylation inhibition, and PARP and caspase-3 cleavage”. Moreover, the EGFR transcriptional level entry in the assay on EGFR is on record as “no significant effect”. Also, in assay [3], the IGF1R phosphorylation result is listed as “significantly decreased”; the MET phosphorylation entry was “marginally decreased”; the “total form of IGF1R and MET” value is “did not change”. In assay [4], the apoptosis result is “significant induction of apoptosis”. Also, the “NADP+/NADPH ratios” value in assay [5] is on record as “no significant effect”. Besides, in the assay with EGFR-mutant NSCLCs [6], the LC3-II levels entry is reported as “significant increase in LC3-II levels”. Also, the “number of GFP-LC3 puncta” value in the assay on EGFR-mutant NSCLCs [6] (PC9 cells expressing GFP-LC3) is listed as “profoundly increased”. Also, in the assay on EGFR-mutant NSCLCs [7], the “cytoplasmic and mitochondrial ROS levels” value is given as “significant increases”. Besides, the apoptotic cell death result in [8] is reported as “promoted apoptosis”. The apoptotic cell death entry in assay [9] was “only in EGFR-mutant NSCLCs”. In assay [10], the “tumor growth of xenografts” value is “robustly diminished the growth”. Besides, in assay [11], the EGFR levels entry is “robust reduction of EGFR levels”; the “EGFR signaling (AKT and ERK phosphorylation)” value is reported as “inhibition of EGFR signaling”; the “PARP and caspase-3 cleavage (apoptosis markers)” value is reported as “leading to apoptosis”. In addition, the “EGFR levels upon ATG7 knockdown” value in assay [11] (cells expressing ATG7 shRNAs, 2DG 10 mM or anisomycin 5 μM, 24 h) is listed as “did not reduce EGFR levels”.
Take `O=C(Cc1ccccc1)Nc1nnc(CCSCCc2nnc(NC(=O)Cc3ccccc3)s2)s1` [BPTES]: the “levels of TCA cycle intermediates” value in the assay on PC9 cells [1] is recorded as “no significant inhibitory effect”. Moreover, the “EGFR signaling (AKT and ERK phosphorylation)” value in [11] was “had no effect on EGFR signaling”.
Take `OO` [H2O2, hydrogen peroxide]: the “JNK activation (P-JNK)” value in assay [12] is given as “activated JNK in a dose-dependent manner”. Besides, the apoptotic cell death result in [8] is recorded as “activated apoptosis in EGFR-mutant NSCLCs in a dose-dependent manner”. Also, in assay [11], the EGFR levels result was “markedly reduced the EGFR levels”; the “EGFR signaling (AKT and ERK phosphorylation)” value is “inhibited the AKT and ERK phosphorylation”; the “PARP and caspase-3 cleavage (apoptosis markers)” value was “cleaved the PARP and caspase-3 in a dose-dependent manner”.
For `CC(=O)N[C@@H](CS)C(=O)O` [NAC, N-acetyl-L-cysteine], the “JNK activation induced by glucose deprivation, 2DG, or rotenone treatment” value in assay [12] (NAC 4 mM, 24 h) is “completely inhibited”. Besides, the “inhibition of anisomycin-induced JNK activation” value in assay [12] (anisomycin with NAC (FIG. 10c)) was “could not”. Moreover, the “rescue from 2DG treatment-induced apoptotic cell death” value in [8] (2DG 10 mM, MPYR or AKG 7 mM, NAC 4 mM) was “significantly rescued cell death”. Further, the “rescue from anisomycin-induced cell death” value in assay [8] (anisomycin 24 h in absence or presence of NAC (FIG. 10a)) is recorded as “did not rescue”. The “rescue from glucose deprivation-induced apoptosis” value in assay [8] (MPYR or AKG 7 mM, NAC 4 mM) was “significantly rescued cell death”. Besides, the “rescue from rotenone-mediated apoptosis” value in assay [8] (rotenone 5 μM, methyl-pyruvate or NAC 4 mM) was “significantly rescued cell death”. For the same compound, in assay [11] (NAC 4 mM, 24 h), the “EGFR levels and AKT and ERK phosphorylation following glucose deprivation, 2DG, or rotenone treatment” value is “significant recovery”; the “PARP and caspase-3 cleavage upon glucose deprivation, 2DG, or rotenone treatment” value was “significantly inhibited”. In addition, the “recovery of anisomycin-decreased EGFR signaling or EGFR levels” value in assay [11] (anisomycin with NAC (FIG. 10b)) is on record as “could not recover”.
Regarding `CCN(CC)CCCC(C)Nc1ccnc2cc(Cl)ccc12` (centres unmarked) [chloroquine], the “PARP and caspase-3 cleavage upon glucose deprivation, 2DG, or anisomycin treatment” value in [11] (chloroquine 10 μM, 24 h) is given as “robustly inhibited”. Moreover, the “reduction in EGFR levels caused by glucose deprivation, 2DG, or anisomycin treatment” value in [11] (in the presence of chloroquine, 24 h) is “dramatically inhibited”.
For `C=C(C)[C@H]1Cc2c(ccc3c2O[C@@H]2COc4cc(OC)c(OC)cc4[C@@H]2C3=O)O1` [rotenone], the “JNK activation (P-JNK)” value in assay [12] was “significantly induced JNK activation in both dose- and time-dependent manners”. Moreover, the “cytoplasmic and mitochondrial ROS levels” value in the assay on EGFR-mutant NSCLCs [7] was “significant increases”. For the same compound, the apoptotic cell death result in assay [8] is listed as “rotenone-mediated apoptosis”. Besides, the EGFR levels result in assay [11] was “robustly decreased EGFR levels in both dose- and time-dependent manners”.
Regarding `OC[C@H]1O[C@H](O[C@H]2O[C@H](CO)[C@@H](O)[C@H](O)[C@H]2O)[C@H](O)[C@@H](O)[C@@H]1O` [trehalose], the EGFR levels entry in assay [11] is given as “significantly induced EGFR degradation in a dose-dependent manner”.
`O=C(O)CCC(=O)C(=O)O` [α-ketoglutarate]: the “recovery of ATP levels reduced by glucose deprivation” value in the assay with PC9 cells [13] was “significant recovery of ATP levels”. In addition, the “rescue from glucose deprivation-induced apoptosis” value in [8] (MPYR or AKG 7 mM, NAC 4 mM) is listed as “rescue EGFR-mutant NSCLCs from glucose deprivation-induced apoptosis”.
